Experimental data as given in patent US6579881B2 (Eisai Co., Ltd., priority 1997, dated 2003).

Legend:
[1] = biological target: T1, serotonin 1A receptor (Rattus norvegicus, UniProt P19327); assay: Binding test on [3H] 8-hydroxy-dipropylaminotetralin (serotonin 1A receptor); conditions: [3H] 8-OH-DPAT 0.5 nM, receptor fraction of rat hippocampus; read-out: 5HT1a
T1 construct: To the receptor fraction of the hippocampus were added a test compound and 0.5 nM of [^3H]; 8-hydroxy-dipropylaminotetralin; from tissue; host or cells: SD rat hippocampus, membrane (receptor) fraction
T1 sequence (P19327 1-422): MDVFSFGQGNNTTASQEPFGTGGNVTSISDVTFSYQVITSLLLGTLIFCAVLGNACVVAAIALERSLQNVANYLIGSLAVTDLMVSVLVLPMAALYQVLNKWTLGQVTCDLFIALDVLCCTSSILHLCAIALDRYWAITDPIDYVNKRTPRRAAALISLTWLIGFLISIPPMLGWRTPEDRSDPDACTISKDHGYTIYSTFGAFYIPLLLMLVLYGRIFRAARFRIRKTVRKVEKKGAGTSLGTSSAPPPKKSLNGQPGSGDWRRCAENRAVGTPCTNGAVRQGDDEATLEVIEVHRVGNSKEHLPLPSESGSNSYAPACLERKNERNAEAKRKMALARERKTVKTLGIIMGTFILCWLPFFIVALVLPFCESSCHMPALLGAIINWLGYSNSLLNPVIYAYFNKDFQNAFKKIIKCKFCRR

[2] = biological target: serotonin 2 receptor (Rattus norvegicus, UniProt P14842); assay: Binding test on [3H] ketanserin (serotonin 2 receptor); conditions: [3H] ketanserin 0.3 nM, receptor fraction of rat cerebral cortex; read-out: 5HT2
Chain of serotonin 2 receptor (P14842 whole entry): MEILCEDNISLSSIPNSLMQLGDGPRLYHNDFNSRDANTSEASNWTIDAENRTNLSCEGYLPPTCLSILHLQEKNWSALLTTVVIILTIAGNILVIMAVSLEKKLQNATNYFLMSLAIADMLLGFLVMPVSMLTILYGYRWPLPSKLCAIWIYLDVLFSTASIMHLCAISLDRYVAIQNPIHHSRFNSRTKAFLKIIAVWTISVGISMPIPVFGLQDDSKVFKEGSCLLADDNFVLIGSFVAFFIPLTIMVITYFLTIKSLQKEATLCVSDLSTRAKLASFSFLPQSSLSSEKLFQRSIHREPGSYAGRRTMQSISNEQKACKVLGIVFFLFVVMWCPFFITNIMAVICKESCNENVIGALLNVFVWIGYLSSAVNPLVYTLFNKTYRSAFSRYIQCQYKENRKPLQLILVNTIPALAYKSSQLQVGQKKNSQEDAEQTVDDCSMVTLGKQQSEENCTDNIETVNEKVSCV

SMILES	Ki [1] [nM]	Ki [2] [nM]
c1ccc(CCN2CCC(N3CCc4ccccc43)CC2)nc1 [Example 50, 1-{1-[2-(2-pyridyl)ethyl]piperidin-4-yl}indoline]	31.2	52.2
COc1ccc(CCN2CCC(N3CCc4ccccc43)CC2)cn1 [Example 52, 1-{1-[2-(2-methoxy-5-pyridyl)ethyl]piperidin-4-yl}indoline]	2.5	5.6
N#Cc1ccc(CCN2CCC(N3CCc4ccccc43)CC2)cn1 [Example 54, 1-{1-[2-(2-cyanopyridin-5-yl)ethyl]piperidin-4-yl}indoline]	7.1	10.3
OCc1ccc(CCN2CCC(N3CCc4ccccc43)CC2)cn1 [Example 55, 1-{1-[2-(2-hydroxymethylpyridin5-yl)ethyl]piperidin-4-yl}indoline]	41.9	17.8
c1csc(CCN2CCC(N3CCc4ccccc43)CC2)c1 [Example 58, 1-{1-[2-(2-thienyl)ethyl]piperidin-4-yl}indoline]	26.2	34.8
c1ccc2c(c1)CCN2C1CCN(CCc2ccsc2)CC1 [Example 59, 1-{1-[2-(3-thienyl)ethyl]piperidin-4-yl}indoline]	12	28.9
c1ccc2c(c1)CCN2C1CCN(CCc2nccs2)CC1 [Example 60, 1-[1-(2-thiazolylethyl)piperidin-4-yl]indoline]	60.8	> 200
Cc1ncsc1CCN1CCC(N2CCc3ccccc32)CC1 [Example 61, 1-[1-(4-methyl-5-thiazolethyl)piperidin-4-yl]indoline]	5	12.5
c1ccc2c(c1)CCN2C1CCN(CCc2c[nH]c3ccccc23)CC1 [Example 62, 1-{1-[(indol-3-yl)ethyl]-piperidin-4-yl}indoline]	6.2	7.4
COc1ccc(CCN2CCC(N3CCc4ccccc43)CC2)s1 [Example 64]	14.8	14.2
c1ccc2c(c1)CCN2C1CCN(CCc2cnccn2)CC1 [Example 67, 1-(1-pyrazinylethylpiperidin-4-yl)indoline]	263	27.1
COc1ccc(CC(C)N2CCC(N3CCc4ccccc43)CC2)cc1OC (centres unmarked) [Example 76, 1-{1-[1-(3,4-dimethoxyphenyl)propan-2-yl]piperidin-4-yl}indoline]	43.2	> 200
c1ccc2c(c1)CCN2C1CCN(CCCOc2ccc3c(c2)OCO3)CC1 [Example 78, 1-{1-[3-(3,4-methylenedioxypheoxy)propyl]piperidin-4-yl}indoline]	2.4	29.6
COc1cccc2c1N(C1CCN(CCc3ccc(F)cc3)CC1)CC2 [Example 107, 1-[1-(4-fluorophenethyl)piperidin-4-yl]-7-methoxyindoline]	7.7	1.7
COc1ccc2c(c1OC)N(C1CCN(CCc3ccc(F)cc3)CC1)CC2 [Example 108, 1-[1-(4-fluorophenethyl)piperidin-4-yl]-6,7-dimethoxyindoline]	172	2.2
CCNc1ccc2c(c1)N(C1CCN(CCc3ccc(F)cc3)CC1)CC2 [Example 112, 1-[1-(4-fluorophenethyl)piperidin-4-yl]-6-ethylaminoindoline]	3.2	165
CC(C)Nc1ccc2c(c1)N(C1CCN(CCc3ccc(F)cc3)CC1)CC2 [Example 113, 1-[1-(4-fluorophenethyl)piperidin-4-yl]-6-isopropylaminoindoline]	13.7	> 200
CCS(=O)(=O)Nc1ccc2c(c1)N(C1CCN(CCc3ccc(F)cc3)CC1)CC2 [Example 117, 1-[1-(4-fluorophenethyl)piperidin-4-yl]-6-ethanesulfonylaminoindoline]	0.6	10.7

Now from value to compound:

Ki [1] [nM]	Ki [2] [nM]	SMILES
206	92.3	O=S(=O)(NCCN1CCC(N2CCc3ccccc32)CC1)c1ccc(Cl)cc1 [Example 47, 1-{1-[2-(4-chlorophenylsulfonylamino)ethyl]piperidin-4-yl}indoline]
15.3	35	COc1ccc(S(=O)(=O)NCCN2CCC(N3CCc4ccccc43)CC2)cc1 [Example 48, 1-{1-[2-(4-methoxyphenylsulfonylamino)ethyl]piperidin-4-yl}indoline]
54.5	29.9	c1ccc2c(c1)CCN2C1CCN(CCc2ccncc2)CC1 [Example 49, 1-{1-[2-(4-pyridyl)ethyl]piperidin-4-yl}indoline]
21.5	2.1	COc1cncc(CCN2CCC(N3CCc4ccccc43)CC2)c1 [Example 53, 1-{1-[2-(3-methoxypyridin-5-yl)ethyl]piperidin-4-yl}indoline]
20.7	1.7	OCc1cncc(CCN2CCC(N3CCc4ccccc43)CC2)c1 [Example 56, 1-{1-[2-(3-hydroxymethylpyridin-5-yl)ethyl]piperidin-4-yl}indoline]
14.6	1.1	Fc1ccc(CCN2CCC(N3CCc4ccccc43)CC2)c(F)n1 [Example 57, 1-[1-(2,6-difluoro-3-pyridylethyl)piperidin-4-yl]indoline]
3.2	1.2	c1ccc2c(c1)CCN2C1CCN(CCc2ccc3ncsc3c2)CC1 [Example 63, 1-{1-[2-(6-benzothiazolyl)ethyl]piperidin-4-yl}indoline]
50.9	85	N#Cc1ncc(CCN2CCC(N3CCc4ccccc43)CC2)s1 [Example 66]
47.2	39.5	Brc1cnn(CCN2CCC(N3CCc4ccccc43)CC2)c1 [Example 68, 1-{1-[2-(4-bromopyrazol-1-yl)ethyl]piperidin-4-yl}indoline]
9.7	29.9	Fc1ccc(OCCCN2CCC(N3CCc4ccccc43)CC2)cc1 [Example 69, 1-{1-[3-(4-fluorophenoxy)propyl]piperidin-4-yl}indoline]
41.9	27.6	OCc1ccc(OCCCN2CCC(N3CCc4ccccc43)CC2)cc1 [Example 70, 1-{1-[3-(4-hydroxymethylphenoxy)propyl]piperidin-4-yl}indoline]
25.4	28.2	OCCc1ccc(OCCCN2CCC(N3CCc4ccccc43)CC2)cc1 [Example 71, 1-{1-[3-(4-hydroxyethylphenoxy)propyl]piperidin-4-yl}indoline]
25.9	21.1	O=C(CCCN1CCC(N2CCc3ccccc32)CC1)c1ccc(F)cc1 [Example 72, 1-{1-[4-(4-fluorophenyl)-4-oxobutyl]piperidin-4-yl}indoline]
34.9	7.2	OC(CCCN1CCC(N2CCc3ccccc32)CC1)c1ccc(F)cc1 (centres unmarked) [Example 73, 1-{1-[4-(4-fluorophenyl)-4-hydroxybutyl]piperidin-4-yl}indoline]
3.6	30.3	O=C(NCCN1CCC(N2CCc3ccccc32)CC1)c1ccc(F)cc1 [Example 75, 1-[1-(4-fluorobenzamido)ethylpiperidin-4-yl]indoline]
2.7	28.4	Fc1ccc(CCN2CCC(N3CCc4ccc(Cl)cc43)CC2)cc1 [Example 102, 1-[1-(4-fluorophenethyl)piperidin-4-yl]-6-chloroindoline]
2.4	6	Oc1ccc2c(c1)N(C1CCN(CCc3ccc(F)cc3)CC1)CC2 [Example 104, 1-[1-(4-fluorophenethyl)piperidin-4-yl]-6-hydroxyindoline]
> 200	17.4	COc1cccc2c1CCN2C1CCN(CCc2ccc(F)cc2)CC1 [Example 105, 1-[1-(4-fluorophenethyl)piperidin-4-yl]-4-methoxyindoline]
23.3	16	Nc1ccc2c(c1)N(C1CCN(CCc3ccc(F)cc3)CC1)CC2 [Example 110, 1-[1-(4-fluorophenethyl)piperidin-4-yl]-6-aminoindoline]
5.5	74.2	CNc1ccc2c(c1)N(C1CCN(CCc3ccc(F)cc3)CC1)CC2 [Example 111, 1-[1-(4-fluorophenethyl)piperidin-4-yl]-6-methylaminoindoline]
5.8	23.2	CN(C)c1ccc2c(c1)N(C1CCN(CCc3ccc(F)cc3)CC1)CC2 [Example 114, 1-[1-(4-fluorophenethyl)piperidin-4-yl]-6-dimethylaminoindoline]
0.5	14.3	CS(=O)(=O)Nc1ccc2c(c1)N(C1CCN(CCc3ccc(F)cc3)CC1)CC2 [Example 116, 1-[1-(4-fluorophenethyl)piperidin-4-yl]-6-methanesulfonylaminoindoline]
0.7	10.4	CCCS(=O)(=O)Nc1ccc2c(c1)N(C1CCN(CCc3ccc(F)cc3)CC1)CC2 [Example 118, 1-[1-(4-fluorophenethyl)piperidin-4-yl]-6-propanesulfonylaminoindoline]
0.2	45.5	O=S(=O)(Nc1ccc2c(c1)N(C1CCN(CCc3ccc(F)cc3)CC1)CC2)c1ccc(F)cc1 [Example 119, 1-[1-(4-fluorophenethyl)piperidin-4-yl]-6-(4-fluorobenzenesulfonylamino)indoline]
1	11.2	CN(c1ccc2c(c1)N(C1CCN(CCc3ccc(F)cc3)CC1)CC2)S(C)(=O)=O [Example 120]
